We go through one compound from patent publication US20050119251A1, “Nicotinamide derivatives and their use as therapeutic agents” (priority 2001, published 2005).

Molecules are shown by their SMILES.

One may read the melting point as the temperature, or range, at which the solid turns liquid. Turning to `COc1nc(N2CCN(C(=O)c3ccccc3C(F)(F)F)CC2)ccc1C(=O)NCCC1CC1` [Example 7, N-(2-cyclopropylethyl)-2-methoxy-6-(4-(2-trifluoromethylbenzoyl)piperazin-1-yl]nicotinamide], the melting point lay within 49 to 51 °C.
